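Interpolation was linear, between the two tested concentrations surrounding the appropriate level; five concentrations were tested over 48 hours in 96-well plates. GI50 marks 50% less growth. TGI denotes the concentration required for complete inhibition of growth.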
Key:
Test in all cases: inhibition of tumour cell growth, NCI panel, 48 h
786-0 renal = system: 786-0 renal
A498 renal = system: A498 renal
A549 NSCLC = system: A549 NSCLC
ACHN renal = system: ACHN renal
BT-549 breast = system: BT-549 breast
CAKI-1 renal = system: CAKI-1 renal
CCRF-CEM leukemia = system: CCRF-CEM leukemia
COLO 205 colon = system: COLO 205 colon
DU-145 prostate = system: DU-145 prostate
HCT-116 colon = system: HCT-116 colon
HCT-15 colon = system: HCT-15 colon
HL-60(TB) leukemia = system: HL-60(TB) leukemia
HOP-92 NSCLC = system: HOP-92 NSCLC
HS 578T breast = system: HS 578T breast
HT29 colon = system: HT29 colon
IGROV1 ovarian = system: IGROV1 ovarian
K-562 leukemia = system: K-562 leukemia
KM12 colon = system: KM12 colon
LOX IMVI melanoma = system: LOX IMVI melanoma
M14 melanoma = system: M14 melanoma
MALME-3M melanoma = system: MALME-3M melanoma
MCF7 breast = system: MCF7 breast
MDA-MB-231 breast = system: MDA-MB-231 breast
MDA-MB-435 = system: MDA-MB-435
MOLT-4 leukemia = system: MOLT-4 leukemia
NCI-H226 lung = system: NCI-H226 lung
NCI-H23 lung = system: NCI-H23 lung
NCI-H460 lung = system: NCI-H460 lung
NCI/ADR-RES ovarian = system: NCI/ADR-RES ovarian
OVCAR-3 ovarian = system: OVCAR-3 ovarian
OVCAR-5 ovarian = system: OVCAR-5 ovarian
PC-3 prostate = system: PC-3 prostate
RPMI-8226 leukemia = system: RPMI-8226 leukemia
RXF 393 renal = system: RXF 393 renal
SF-268 CNS = system: SF-268 CNS
SF-295 CNS = system: SF-295 CNS
SF-539 CNS = system: SF-539 CNS
SK-MEL-2 melanoma = system: SK-MEL-2 melanoma
SK-MEL-28 melanoma = system: SK-MEL-28 melanoma
SK-MEL-5 melanoma = system: SK-MEL-5 melanoma
SK-OV-3 ovarian = system: SK-OV-3 ovarian
SN12C renal = system: SN12C renal
SNB-19 CNS = system: SNB-19 CNS
SNB-75 CNS = system: SNB-75 CNS
SR leukemia = system: SR leukemia
SW-620 colon = system: SW-620 colon
T-47D breast = system: T-47D breast
TK-10 renal = system: TK-10 renal
UACC-257 melanoma = system: UACC-257 melanoma
UACC-62 melanoma = system: UACC-62 melanoma
UO-31 renal = system: UO-31 renal
EKVX NSCLC = system: EKVX NSCLC
HCC-2998 colon = system: HCC-2998 colon
HOP-62 NSCLC = system: HOP-62 NSCLC
NCI-H522 lung = system: NCI-H522 lung
OVCAR-4 ovarian = system: OVCAR-4 ovarian
OVCAR-8 ovarian = system: OVCAR-8 ovarian
U251 CNS = system: U251 CNS

For `COc1cc2c(/C=C3/C(=O)Nc4ccc(Cl)cc43)c(Cl)n(Cc3ccccc3)c2cc1C`, the TGI (786-0 renal) was 6.41 µM, the TGI (A498 renal) was 5.72 µM and the TGI (A549 NSCLC) was > 100 µM. The TGI (ACHN renal) was 6.8 µM, the TGI (BT-549 breast) was 22.6 µM and the TGI (CAKI-1 renal) was 10.6 µM. The TGI (CCRF-CEM leukemia) was 6.78 µM, the TGI (COLO 205 colon) was 6.36 µM and the TGI (DU-145 prostate) was 16.1 µM. For the same compound, the TGI (HCT-116 colon) was > 100 µM, the TGI (HCT-15 colon) was 17.8 µM and the TGI (HL-60(TB) leukemia) was 17.4 µM. For the same compound, the TGI (HOP-92 NSCLC) was 25.9 µM, the TGI (HS 578T breast) was > 100 µM and the TGI (HT29 colon) was > 100 µM. The TGI (IGROV1 ovarian) was 13.4 µM, the TGI (K-562 leukemia) was > 100 µM and the TGI (KM12 colon) was 5.64 µM. The TGI (LOX IMVI melanoma) was > 100 µM, the TGI (M14 melanoma) was 18.2 µM and the TGI (MALME-3M melanoma) was 4.38 µM. For the same compound, the TGI (MCF7 breast) was > 100 µM, the TGI (MDA-MB-231 breast) was 6.04 µM and the TGI (MDA-MB-435) was 6.21 µM. It also gave a TGI (MOLT-4 leukemia) of 5.02 µM, a TGI (NCI-H226 lung) of 9.61 µM and a TGI (NCI-H23 lung) of 7.46 µM. For the same compound, the TGI (NCI-H460 lung) was > 100 µM, the TGI (NCI/ADR-RES ovarian) was > 100 µM and the TGI (OVCAR-3 ovarian) was 4.83 µM. It also gave a TGI (OVCAR-5 ovarian) of 7.06 µM, a TGI (PC-3 prostate) of 22.2 µM and a TGI (RPMI-8226 leukemia) of 6.9 µM. The TGI (RXF 393 renal) was 5.18 µM, the TGI (SF-268 CNS) was > 100 µM and the TGI (SF-295 CNS) was 7.19 µM. The TGI (SF-539 CNS) was 7.69 µM, the TGI (SK-MEL-2 melanoma) was 34.9 µM and the TGI (SK-MEL-28 melanoma) was 9.46 µM. It also gave a TGI (SK-MEL-5 melanoma) of 13.7 µM, a TGI (SK-OV-3 ovarian) of 4.41 µM and a TGI (SN12C renal) of 5.24 µM. The TGI (SNB-19 CNS) was 8.98 µM, the TGI (SNB-75 CNS) was 4.61 µM and the TGI (SR leukemia) was 5.9 µM. For the same compound, the TGI (SW-620 colon) was > 100 µM, the TGI (T-47D breast) was 13.9 µM and the TGI (TK-10 renal) was 3.76 µM. The TGI (UACC-257 melanoma) was > 100 µM, the TGI (UACC-62 melanoma) was 10.3 µM and the TGI (UO-31 renal) was 6.78 µM.

`O=C(CCl)c1ccc([N+](=O)[O-])o1` gave a GI50 (786-0 renal) of 3.32 µM, a TGI (786-0 renal) of 10.9 µM and a GI50 (A498 renal) of 13.6 µM. It also gave a TGI (A498 renal) of 27.5 µM, a GI50 (A549 NSCLC) of 21.1 µM and a TGI (A549 NSCLC) of 54.4 µM. The GI50 (ACHN renal) was 1.68 µM, the TGI (ACHN renal) was 3.26 µM and the GI50 (BT-549 breast) was 2.24 µM. For the same compound, the TGI (BT-549 breast) was 6.85 µM, the GI50 (CAKI-1 renal) was 1.73 µM and the TGI (CAKI-1 renal) was 3.24 µM. The GI50 (CCRF-CEM leukemia) was 0.932 µM, the TGI (CCRF-CEM leukemia) was 2.51 µM and the GI50 (COLO 205 colon) was 1.73 µM. The TGI (COLO 205 colon) was 3.72 µM, the GI50 (DU-145 prostate) was 2.21 µM and the TGI (DU-145 prostate) was 5.01 µM. The GI50 (EKVX NSCLC) was 10.7 µM, the TGI (EKVX NSCLC) was 32.6 µM and the GI50 (HCC-2998 colon) was 5.36 µM. For the same compound, the TGI (HCC-2998 colon) was 11.2 µM, the GI50 (HCT-116 colon) was 0.519 µM and the TGI (HCT-116 colon) was 2.4 µM. The GI50 (HCT-15 colon) was 1.61 µM, the TGI (HCT-15 colon) was 3.22 µM and the GI50 (HL-60(TB) leukemia) was 1.64 µM. The GI50 (HOP-62 NSCLC) was 7.58 µM, the TGI (HOP-62 NSCLC) was 17.6 µM and the GI50 (HS 578T breast) was 2.72 µM. The TGI (HS 578T breast) was 8.66 µM, the GI50 (HT29 colon) was 2.76 µM and the TGI (HT29 colon) was 8.99 µM. It also gave a GI50 (IGROV1 ovarian) of 5.5 µM, a TGI (IGROV1 ovarian) of 14 µM and a GI50 (K-562 leukemia) of 1.18 µM. The TGI (K-562 leukemia) was > 19.8 µM, the GI50 (KM12 colon) was 2.02 µM and the TGI (KM12 colon) was 4.6 µM. For the same compound, the GI50 (LOX IMVI melanoma) was 1.47 µM, the TGI (LOX IMVI melanoma) was 3.19 µM and the GI50 (M14 melanoma) was 2.18 µM. For the same compound, the TGI (M14 melanoma) was 5.06 µM, the GI50 (MALME-3M melanoma) was 1.98 µM and the TGI (MALME-3M melanoma) was 4.37 µM. The GI50 (MCF7 breast) was 1.87 µM, the TGI (MCF7 breast) was 5.82 µM and the GI50 (MDA-MB-231 breast) was 4.9 µM. The TGI (MDA-MB-231 breast) was 13.7 µM, the GI50 (MDA-MB-435) was 1.89 µM and the TGI (MDA-MB-435) was 4.22 µM. For the same compound, the GI50 (MOLT-4 leukemia) was 1.15 µM, the GI50 (NCI-H226 lung) was 2.45 µM and the TGI (NCI-H226 lung) was 7.05 µM. The GI50 (NCI-H23 lung) was 4.94 µM, the TGI (NCI-H23 lung) was 26 µM and the GI50 (NCI-H460 lung) was 10.3 µM. The TGI (NCI-H460 lung) was 28.1 µM, the GI50 (NCI-H522 lung) was 2.81 µM and the TGI (NCI-H522 lung) was > 21.1 µM. For the same compound, the GI50 (NCI/ADR-RES ovarian) was 3.51 µM, the TGI (NCI/ADR-RES ovarian) was 23.8 µM and the GI50 (OVCAR-3 ovarian) was 1.25 µM. It also gave a TGI (OVCAR-3 ovarian) of 2.58 µM, a GI50 (OVCAR-4 ovarian) of 1.73 µM and a TGI (OVCAR-4 ovarian) of 3.32 µM. The GI50 (OVCAR-5 ovarian) was 2.48 µM, the TGI (OVCAR-5 ovarian) was 5.3 µM and the GI50 (OVCAR-8 ovarian) was 3.33 µM. The TGI (OVCAR-8 ovarian) was 18.8 µM, the GI50 (PC-3 prostate) was 2.15 µM and the TGI (PC-3 prostate) was 6.34 µM. It also gave a GI50 (RPMI-8226 leukemia) of 0.873 µM, a GI50 (RXF 393 renal) of 2.2 µM and a TGI (RXF 393 renal) of 8.24 µM. For the same compound, the GI50 (SF-268 CNS) was 2.54 µM, the TGI (SF-268 CNS) was 6.8 µM and the GI50 (SF-295 CNS) was 5.26 µM. For the same compound, the TGI (SF-295 CNS) was 17.4 µM, the GI50 (SF-539 CNS) was 2.28 µM and the TGI (SF-539 CNS) was 5.03 µM. It also gave a GI50 (SK-MEL-2 melanoma) of 6.81 µM, a TGI (SK-MEL-2 melanoma) of 27.4 µM and a GI50 (SK-MEL-28 melanoma) of 1.61 µM. For the same compound, the TGI (SK-MEL-28 melanoma) was 3.14 µM, the GI50 (SK-MEL-5 melanoma) was 4.11 µM and the TGI (SK-MEL-5 melanoma) was 15.7 µM. The GI50 (SK-OV-3 ovarian) was 14.9 µM, the TGI (SK-OV-3 ovarian) was 30.5 µM and the GI50 (SN12C renal) was 2.38 µM. The TGI (SN12C renal) was 7.27 µM, the GI50 (SNB-19 CNS) was 10.6 µM and the TGI (SNB-19 CNS) was 23.4 µM. For the same compound, the GI50 (SNB-75 CNS) was 3.06 µM, the TGI (SNB-75 CNS) was 9.16 µM and the GI50 (SR leukemia) was 0.406 µM. For the same compound, the TGI (SR leukemia) was 1.81 µM, the GI50 (SW-620 colon) was 0.886 µM and the TGI (SW-620 colon) was 2.54 µM. The GI50 (T-47D breast) was 1.89 µM, the TGI (T-47D breast) was 4.78 µM and the GI50 (TK-10 renal) was 1.79 µM. For the same compound, the TGI (TK-10 renal) was 3.49 µM, the GI50 (U251 CNS) was 1.95 µM and the TGI (U251 CNS) was 4.37 µM. It also gave a GI50 (UACC-257 melanoma) of 1.83 µM, a TGI (UACC-257 melanoma) of 3.93 µM and a GI50 (UACC-62 melanoma) of 2.13 µM. The TGI (UACC-62 melanoma) was 5.62 µM, the GI50 (UO-31 renal) was 2.14 µM and the TGI (UO-31 renal) was 6.7 µM.

From PubChem BioAssay (NCI)
